# Like-named read-outs stand apart in the source and are kept apart here.
# How the values were obtained:
# [1] = Metabolites in urine and melanoma by RP-HPLC; format: in vivo, C57 mice; settings: urine, 2 h post-injection
# Description: The mouse used for the imaging study (2 h post-injection) described above was euthanized and the urine was collected for identifying the metabolites. The urinary sample was centrifuged at 16,000 g for 5 min prior to the HPLC analysis. The radioactive metabolite in the urine was analyzed by injecting aliquots of urine into the HPLC. A 20-minute gradient of 18-28% acetonitrile/20 mM HCl was used for the urine analysis.
# Both melanoma and urine were collected from the mouse used for SPECT/CT imaging to analyze the metabolites of ^111In-DOTA-GGNle-CycMSHhex in melanoma and urine. The tumor was homogenized by a VWR homogenizer for 5 mins. Equal volume of ethanol was added into the tumor sample. The tumor sample was vortexed and then centrifuged at 16,000 g for 5 mins. The supernatant was transferred into a glass test tube and purged with N2 gas for 20 mins to remove the ethanol. Aliquots of the supernatant were injected into HPLC. The urinary sample was directly centrifuged at 16,000 g for 5 mins prior to the HPLC analysis. Thereafter, aliquots of the urine were injected into HPLC. The HPLC gradient described above was used for the analyses of metabolites.
# B16/F1 melanoma = test: Biodistribution in B16/F1 melanoma-bearing C57 mice; format: in vivo
# Description: (§1) All the animal studies were conducted in compliance with Institutional Animal Care and Use Committee approval. The mice were housed five animals per cage in sterile micro-isolator cages in a temperature- and humidity-controlled room with a 12-h light/12-h dark schedule. […] C57 mice were subcutaneously inoculated on the right flank with 1×10^6 B16/F1 cells. The weight of tumors reached approximately 0.2 g 10 days post cell inoculation. […] Groups of 5 mice were sacrificed at 0.5, 2, 4 and 24 h post-injection, and tumors and organs of interest were harvested, weighed and counted. Blood values were taken as 6.5% of the whole-body weight. […] The mice were sacrificed at 2 h post-injection. The tumor and organs of interest were harvested, weighed and counted.
# (§2) All animal studies were conducted in compliance with Institutional Animal Care and Use Committee approval. The pharmacokinetics of ^111In-DOTA-GGNle-CycMSHhex and ^111In-DOTA-GENle-CycMSHhex were determined in B16/F1 melanoma-bearing C57 female mice (Harlan, Indianapolis, Ind.). The C57 mice were subcutaneously inoculated with 1×10^6 B16/F1 cells on the right flank for each mouse to generate B16/F1 melanomas. Ten days post inoculation, the tumor weights reached approximately 0.2 g. Each melanoma-bearing mouse was injected with 0.037 MBq of ^111In-DOTA-GGNle-CycMSHhex or ^111In-DOTA-GENle-CycMSHhex via the tail vein. Groups of 5 mice were sacrificed at 0.5, 2, 4 and 24 h post-injection, and tumors and organs of interest were harvested, weighed and counted. Blood values were taken as 6.5% of the whole-body weight. The specificities of the tumor uptake of ^111In-DOTA-GGNle-CycMSHhex and ^111In-DOTA-GENle-CycMSHhex were determined by co-injecting 10 μg (6.07 nmol) of unlabeled NDP-MSH which is a linear α-MSH peptide analogue with picomolar MC1 receptor binding affinity.
# [2] = as above; format: in vivo; settings: female, C57, mouse, iv, total radioactivity; for tissue uptake at 2 h / tissue uptake dose at 2 h: 2 h post-injection
# Description: as §1, §2
smiles,measurement,setting,value
"CCCC[C@H](NC(=O)CN1CCN(CC(=O)O)CCN(CC(=O)O)CCN(CC(=O)O)CC1)C(=O)N[C@H]1CC(=O)NCCCC[C@@H](C(N)=O)NC(=O)[C@H](Cc2c[nH]c3ccccc23)NC(=O)[C@H](CCCNC(=N)N)NC(=O)[C@@H](Cc2ccccc2)NC(=O)[C@H](Cc2c[nH]cn2)NC1=O [^111In-DOTA-Nle-CycMSHhex, metal not drawn]",urinary metabolites by HPLC,[1],remained intact
same,tumor uptake with NDP-MSH co-injection as percent of tumor uptake without,"B16/F1 melanoma; 10 μg NDP-MSH, 2 h after dose administration",4.2%
same,Kidneys uptake,B16/F1 melanoma; 0.5 h post-injection,16.20±4.32 % ID/g
same,Tumor uptake,B16/F1 melanoma; 0.5 h post-injection,24.94±4.58 % ID/g
same,Tumor uptake,B16/F1 melanoma; 2 h post-injection,19.39±2.72 % ID/g
same,reduction of kidney uptake by L-lysine co-injection,B16/F1 melanoma; 2 h post-injection,30%
same,renal uptake as percent of that of ^111In-DOTA-GlyGlu-CycMSH,B16/F1 melanoma; 2 h post-injection,72.8%
same,"tumor uptake, times that of ^111In-DOTA-GlyGlu-CycMSH",B16/F1 melanoma; 2 h post-injection,1.86 times
same,Tumor uptake,B16/F1 melanoma; 4 h post-injection,17.01±2.54 % ID/g
same,liver uptake as percent of that of ^99mTc(CO)3-pz-βAla-Nle-cyclo[Asp-His-D-Phe-Arg-Trp-Lys]-NH2,B16/F1 melanoma; 4 h post-injection,7.5%
same,renal uptake as percent of that of ^99mTc(CO)3-pz-βAla-Nle-cyclo[Asp-His-D-Phe-Arg-Trp-Lys]-NH2,B16/F1 melanoma; 4 h post-injection,31.1%
same,renal uptake as percent of that of ^111In-DOTA-GlyGlu-CycMSH,B16/F1 melanoma; 4 h post-injection,82.4%
same,"tumor uptake, times that of ^99mTc(CO)3-pz-βAla-Nle-cyclo[Asp-His-D-Phe-Arg-Trp-Lys]-NH2",B16/F1 melanoma; 4 h post-injection,1.5 times
same,Kidneys uptake,B16/F1 melanoma; 24 h post-injection,9.31±0.91 % ID/g
same,Tumor uptake,B16/F1 melanoma; 24 h post-injection,10.53±1.11 % ID/g
same,tumor activity at 2 h remaining in tumors at 24 h,B16/F1 melanoma; 24 h post-injection,54.3%
same,tissue uptake at 0.5 h,"[2]; blood, 0.037 MBq, 0.5 h post-injection, read-out: Blood uptake",3.33 ± 0.35 %ID/g
same,tissue uptake at 2 h,"[2]; blood, 0.037 MBq, read-out: Blood uptake",0.11 ± 0.07 %ID/g
same,tissue uptake at 4 h,"[2]; blood, 0.037 MBq, 4 h post-injection, read-out: Blood uptake",0.05 ± 0.02 %ID/g
same,tissue uptake at 24 h,"[2]; blood, 0.037 MBq, 24 h post-injection, read-out: Blood uptake",0.02 ± 0.01 %ID/g
same,tissue uptake at 2 h,"[2]; blood, L-lysine co-injection, read-out: Blood uptake",0.92 ± 0.48 %ID/g
same,tissue uptake at 2 h,"[2]; blood, NDP blockade, read-out: Blood uptake",0.07 ± 0.05 %ID/g
same,tissue uptake at 0.5 h,"[2]; bone, 0.037 MBq, 0.5 h post-injection, read-out: Bone uptake",1.34 ± 0.4 %ID/g
same,tissue uptake at 2 h,"[2]; bone, 0.037 MBq, read-out: Bone uptake",0.18 ± 0.1 %ID/g
same,tissue uptake at 4 h,"[2]; bone, 0.037 MBq, 4 h post-injection, read-out: Bone uptake",0.22 ± 0.15 %ID/g
same,tissue uptake at 24 h,"[2]; bone, 0.037 MBq, 24 h post-injection, read-out: Bone uptake",0.16 ± 0.03 %ID/g
same,tissue uptake at 2 h,"[2]; bone, L-lysine co-injection, read-out: Bone uptake",0.55 ± 0.14 %ID/g
same,tissue uptake at 2 h,"[2]; bone, NDP blockade, read-out: Bone uptake",0.05 ± 0.04 %ID/g
same,tissue uptake at 0.5 h,"[2]; brain, 0.037 MBq, 0.5 h post-injection, read-out: Brain uptake",0.21 ± 0.07 %ID/g
same,tissue uptake at 2 h,"[2]; brain, 0.037 MBq, read-out: Brain uptake",0.02 ± 0.01 %ID/g
same,tissue uptake at 4 h,"[2]; brain, 0.037 MBq, 4 h post-injection, read-out: Brain uptake",0.06 ± 0.03 %ID/g
same,tissue uptake at 24 h,"[2]; brain, 0.037 MBq, 24 h post-injection, read-out: Brain uptake",0.03 ± 0.01 %ID/g
same,tissue uptake at 2 h,"[2]; brain, L-lysine co-injection, read-out: Brain uptake",0.04 ± 0.01 %ID/g
same,tissue uptake at 2 h,"[2]; brain, NDP blockade, read-out: Brain uptake",0.01 ± 0.01 %ID/g
same,tissue uptake at 0.5 h,"[2]; heart, 0.037 MBq, 0.5 h post-injection, read-out: Heart uptake",1.24 ± 0.15 %ID/g
same,tissue uptake at 2 h,"[2]; heart, 0.037 MBq, read-out: Heart uptake",0.16 ± 0.1 %ID/g
same,tissue uptake at 4 h,"[2]; heart, 0.037 MBq, 4 h post-injection, read-out: Heart uptake",0.12 ± 0.03 %ID/g
same,tissue uptake at 24 h,"[2]; heart, 0.037 MBq, 24 h post-injection, read-out: Heart uptake",0.07 ± 0.05 %ID/g
same,tissue uptake at 2 h,"[2]; heart, L-lysine co-injection, read-out: Heart uptake",0.37 ± 0.02 %ID/g
same,tissue uptake at 2 h,"[2]; heart, NDP blockade, read-out: Heart uptake",0.06 ± 0.02 %ID/g
same,tissue uptake dose at 0.5 h,"[2]; intestines, 0.037 MBq, 0.5 h post-injection, read-out: Intestines, percent injected dose",2.16 ± 0.28 %ID
same,tissue uptake dose at 2 h,"[2]; intestines, 0.037 MBq, read-out: Intestines, percent injected dose",1.4 ± 0.56 %ID
same,tissue uptake dose at 4 h,"[2]; intestines, 0.037 MBq, 4 h post-injection, read-out: Intestines, percent injected dose",3.03 ± 1.06 %ID
same,tissue uptake dose at 24 h,"[2]; intestines, 0.037 MBq, 24 h post-injection, read-out: Intestines, percent injected dose",1.41 ± 0.86 %ID
same,tissue uptake dose at 2 h,"[2]; intestines, L-lysine co-injection, read-out: Intestines, percent injected dose",1.85 ± 0.73 %ID
same,tissue uptake dose at 2 h,"[2]; intestines, NDP blockade, read-out: Intestines, percent injected dose",1.14 ± 0.47 %ID
same,tissue uptake at 0.5 h,"[2]; kidneys, 0.037 MBq, 0.5 h post-injection, read-out: Kidneys uptake",16.2 ± 4.32 %ID/g
same,tissue uptake at 2 h,"[2]; kidneys, 0.037 MBq, read-out: Kidneys uptake",9.52 ± 0.44 %ID/g
same,tissue uptake at 4 h,"[2]; kidneys, 0.037 MBq, 4 h post-injection, read-out: Kidneys uptake",9.99 ± 1.39 %ID/g
same,tissue uptake at 24 h,"[2]; kidneys, 0.037 MBq, 24 h post-injection, read-out: Kidneys uptake",9.31 ± 0.91 %ID/g
